The results in this text go back to patent publication US20140288025A1, “FATTY ACID ANTIVIRAL CONJUGATES AND THEIR USES” (Catabasis Pharmaceuticals, Inc., priority 2013, published 2014).

For orientation: EC50 means the concentration at which the effect is half-maximal.

In this assay the test system is HCV Con 1 subgenomic replicon. The assay is described as follows: HCV replicon assay (Huh-7 GS4.1 cells, NS4A ELISA). Type of assay: cell-based. The following applies: Hepatitis C virus, Huh-7 GS4.1 replicon cells, 72 hours. The procedure: The HCV replicon assay was carried out in the same manner described in WO 2010/018140, WO 2011/123586, Okuse et al Antivir. Res. 2005, 65, p. 23, Blight et al Science 2000, 290, p. 1972, Korba and Gerin Antivir. Res. 1992, 19, p. 55). Huh-7 cells containing HCV Con 1 subgenomic replicon (GS4.1 cells) were grown in Dulbecco's Modified Eagle Medium (DMEM) supplemented with 10% fetal bovine serum (FBS), 2 mM L-glutamine, 110 mg/L sodium pyruvate, 1× non-essential amino acids, 100 U/mL penicillin-streptomycin and 0.5 mg/mL G418 (Invitrogen). For dose-response testing, the cells were seeded in 96-well plates at 7.5×10^3 cells/well in a volume of […] and incubated at 37° C./5% CO2. […] The cells were incubated in the presence of compounds for 72 hours after which they are monitored for expression of the NS4A protein by enzyme-linked immunosorbent assay (ELISA). […] The reaction was stopped after 30 minutes with 2 N H2SO4 and the absorbance was read at 492 nm using a Sunrise Tecan spectrophotometer. EC50 values were determined from the % inhibition vs concentration data using a sigmoidal non-linear regression analysis based on four parameters with Tecan Magellan software. For cytotoxicity evaluation, GS4.1 cells are treated with compounds as described and cellular viability can be monitored using a Cell Titer 96 AQueous One Solution Cell Proliferation Assay (Promega). […]

The compound `CC/C=C\C/C=C\C/C=C\C/C=C\C/C=C\C/C=C\CCC(=O)NCCNP(=O)(OC[C@H]1O[C@@H](n2ccc(=O)[nH]c2=O)[C@](C)(F)[C@@H]1O)Oc1ccccc1` (stereo partly drawn) [II-1, ((2R,3R,4R,5R)-5-(2,4-dioxo-3,4-dihydropyrimidin-1(2H)-yl)-4-fluoro-3-hydroxy-4-methyltetrahydrofuran-2-yl)methyl phenyl (2-((4Z,7Z,10Z,13Z,16Z,19Z)-docosa-4,7,10,13,16,19-hexaenamido)ethyl) phosphoramidate] yielded an EC50 of 780 nM.
